Measurements reported in patent US12287324B2, “Companion diagnostics for NSAIDS and donepezil for treating specific subpopulations of patients suffering from Alzheimer's disease” (University of North Texas Health Science Center at Fort …, priority 2018, dated 2025).
Entries after “also recorded” stand apart in the source; their conditions may differ.

Test system: Individuals with a diagnosis of probable AD
Test: ADCS anti-inflammatory clinical trial, 1-year exposure; MMSE and CDR-SB outcomes by treatment arm and proinflammatory endophenotype
Type: in vivo, human
Conditions: for MMSE Change, mean (SD): change = screening − 12-month, positive = decline; for participants with mild decline in MMSE (number) / participants with mild decline in MMSE (percent of arm): MMSE decline of 1-2 points over 12 mo; for participants who declined 3 or more points on MMSE (number) / participants who declined 3 or more points on MMSE (percent of arm): over 12-months (adverse responders); for participants with improvement in MMSE scores over 12-months (number) / participants with improvement in MMSE scores over 12-months (percent of arm): responders = improved MMSE >=1 point over 12 mo
Text: Data source. Banked plasma samples from the Alzheimer's Disease Cooperative Studies (ADCS) anti-inflammatory clinical trial were used. […] This was a multicenter, randomized, double-blind, placebo-controlled parallel group trial with 1-year exposure to study medications across forty ambulatory treatment centers affiliated with the ADCS. […] Inclusion criteria were as follows: age 50 or older, MMSE score of 13-26 and diagnosis of probable AD. Stable use of cholinesterase inhibitors was allowed.
Statistical Analyses. Biomarker data were transformed using the Box-Cox transformation per previously published protocols, relevant portions incorporated herein by reference. Support vector machine (SVM) analyses were utilized to build the proteomic profiles simultaneously classifying all outcome groups in R per the inventors previously published methods, relevant portions incorporated herein by reference. SVM analyses are capable of simultaneously taking into account large volume data to generate an overall profile (e.g., over and under-expression of select proteins) that most accurately classifies multiple outcomes rather than only binary outcomes. MMSE change scores were utilized as the outcome variables for the study (i.e. MMSE screening−MMSE 12-month follow-up=MMSE change). Participants were classified into four groups based on change in MMSE scores over 12-months: responders (improved MMSE scores of >=1 point over 12 mo), stable (no change in MMSE over 12 months), non-responders (MMSE decline of 1-2 points over 12 mo) or adverse responders (MMSE decline of 3 or more points over 12 mo). To build inflammatory profiles of treatment response, group status (i.e. treatment response) was utilized as the outcome variable in SVM models with pre-randomization inflammatory proteins as the predictor variable. In order to determine if the proinflammatory profile of treatment response was drug-specific, analyses were conducted utilizing the total sample as well as within specific study treatment arms.
Next, MMSE change scores were dichotomized into improvement versus stable or decline over the 12-mo period.

[1] = High proinflammatory endophenotype (n = 8)
[2] = Low proinflammatory endophenotype (n = 7)
[3] = Middle proinflammatory endophenotype (n = 36)
[4] = within treatment arm, no change in MMSE over 12 months

SMILES: COc1ccc2cc([C@H](C)C(=O)O)ccc2c1 [Naproxen, naproxen]
- CDR-SB 12 mo, mean (SD) [1]: 5.36 (3.0)
- CDR-SB Change, mean (SD) [1]: 0.7 (2.5)
- MMSE 12 mo, mean (SD) [1]: 21.2 (5.3)
- MMSE Change, mean (SD) (High proinflammatory endophenotype (n = 8), p = 0.02 vs placebo high group): −0.13 (3.1)
- CDR-SB 12 mo, mean (SD) [2]: 9.8 (4.1)
- CDR-SB Change, mean (SD) [2]: −2.5 (2.1)
- MMSE 12 mo, mean (SD) [2]: 16.1 (5.5)
- MMSE Change, mean (SD) [2]: 1.5 (3.1)
- CDR-SB 12 mo, mean (SD) [3]: 8.4 (4.1)
- CDR-SB Change, mean (SD) [3]: −2.6 (2.5)
- MMSE 12 mo, mean (SD) [3]: 16.5 (6.4)
- MMSE Change, mean (SD) [3]: 4.2 (4.6)
- decline / change in MMSE scores over a 12 mo period as compared to the placebo group (high end of the proinflammatory endophenotype (CRP>1015.52 & TNFα>0.64), F[1,6]=8.2, p=0.03): significantly reduced decline; also recorded: significantly better
- average score of dichotomized MMSE change (improvement versus stable or decline) (high proinflammatory endophenotype, 12-mo period, Placebo group 0.25): 0.63
- patients improved on MMSE (dichotomized) (high proinflammatory endophenotype, 12-mo period, Placebo group 25%): 63%
- improvement in MMSE scores over 12 months as compared to the Placebo group (high proinflammatory endophenotype, age, gender, education, APOE4 as covariates, F[1,6]=10.9, p=0.02): significant improvement
- cognitive course (MMSE) in the low end of the proinflammatory endophenotype (low end, CRP and TNFα cut-scores of the naproxen-specific algorithm): trend towards those in the low end to experience significant decline
- participants with mild decline in MMSE (number) (within treatment arm): 10
- participants with mild decline in MMSE (percent of arm) (within treatment arm): 20%
- participants who declined 3 or more points on MMSE (number) (within treatment arm): 26
- participants who declined 3 or more points on MMSE (percent of arm) (within treatment arm): 51%
- participants with improvement in MMSE scores over 12-months (number) (within treatment arm): 10
- participants with improvement in MMSE scores over 12-months (percent of arm) (within treatment arm): 20%

SMILES: CS(=O)(=O)c1ccc(C2=C(c3ccccc3)C(=O)OC2)cc1 [Rofecoxib, rofecoxib]
- participants with mild decline in MMSE (number) (within treatment arm): 14
- participants with mild decline in MMSE (percent of arm) (within treatment arm): 25%
- participants who remained stable on MMSE (number) [4]: 8
- participants who remained stable on MMSE (percent of arm) [4]: 15%
- participants who declined 3 or more points on MMSE (number) (within treatment arm): 23
- participants who declined 3 or more points on MMSE (percent of arm) (within treatment arm): 42%
- participants with improvement in MMSE scores over 12-months (number) (within treatment arm): 9
- participants with improvement in MMSE scores over 12-months (percent of arm) (within treatment arm): 16%
